The record followed here is ChEMBL document CHEMBL6182916, “Unexpected Discovery of a Novel Triphenylphosphonium Alkylalcohol That Triggers Cancer Cell Death via Mitophagy and Ferroptosis” (J Med Chem, 2025).

Series [1] deals with HCC827. As to the kind of experiment: Induction of apoptosis in human HCC827 cells assessed as early apoptotic cells at 1 uM measured after 48 hrs by annexin V and PI staining based flow cytometry analysis (reference value: 0.70%). The class given is functional.
Series [2] relates to A-375. As to the kind of experiment: Anticancer activity against human A-375 cells assessed as inhibition of cell growth by MTT assay. The class given is functional, cell-based.
The test system of series [3] is HCC827. As to the kind of experiment: Induction of apoptosis in human HCC827 cells assessed as late apoptotic cells at 1 uM measured after 48 hrs by annexin V and PI staining based flow cytometry analysis (reference value: 1.29%). The class given is functional. On the technique in general: In flow cytometry, cells or beads pass a laser one at a time.
The nature of series [4]: Antiproliferative activity against human LO2 cells assessed as inhibition of cell growth measured after 72 hrs by MTT assay. In kind it is toxicity, cell-based, L02.
Series [5] deals with HCC827. As to the kind of experiment: Induction of cell cycle arrest in human HCC827 cells assessed as accumulation of cells at S phase at 0.4 uM incubated for 24 hrs by PI staining based flow cytometry analysis (reference value: 26.41%). The class given is functional.
The test system of the next series is SK-LU-1. As to the kind of experiment: Antiproliferative activity against human SK-LU-1 cells assessed as inhibition of cell growth measured after 72 hrs by MTT assay. The class given is functional, cell-based. The settings on record: SK-LU-1, 72 h.
Series [6] has as its system HCC827. As to the kind of experiment: Inhibition of colony formation in human HCC827 cells at 0.2 uM incubated for 72 hrs by crystal violet staining based analysis. The class given is functional, cell-based.
Series [7] is described as follows: Antiproliferative activity against human HUVEC cells assessed as inhibition of cell growth measured after 72 hrs by MTT assay. In kind it is toxicity, cell-based. In general terms: Tetrazolium assays rely on reduction of a dye to a coloured formazan, in cell work by metabolically active cells.
The nature of series [8]: Antiproliferative activity against human Osimertinib-resistant HCC827 cell assessed as inhibition of cell growth measured after 72 hrs by MTT assay. The class given is functional, cell-based.
The test system of a further series is NCI-H1650. As to the kind of experiment: Antiproliferative activity against human NCI-H1650 cells assessed as inhibition of cell growth measured after 72 hrs by MTT assay. In kind it is functional, cell-based. The conditions noted are these: NCI-H1650, 72 h.
Series [9] has as its system HCC827. As to the kind of experiment: Induction of apoptosis in human HCC827 cells assessed as necrotic cells at 1 uM measured after 48 hrs by annexin V and PI staining based flow cytometry analysis (reference value: 1.18%). The class given is functional.
Series [10] concerns HCC827. As to the kind of experiment: Induction of ROS generation in human HCC827 cells assessed as decrease in NADH content at 1 uM incubated for 4 hrs by absorbance based analysis. The class given is functional, cell-based.
A short description of series [11]: Antiproliferative activity against HEK293T cells assessed as inhibition of cell growth measured after 72 hrs by MTT assay. The class given is toxicity, cell-based, HEK-293T. The settings on record: human.
For a further series, the system named is Mitochondrial membrane. As to the kind of experiment: Induction of mitochondrial membrane depolarization in human HCC827 cells assessed as increase in J-monomer ratio at 0.5 uM incubated for 4 hrs by JC-1 staining based flow cytometric analysis. In kind it is cell membranes.
Series [12] has as its system HCC827. As to the kind of experiment: Antiproliferative activity against human HCC827 cells assessed as inhibition of cell growth measured after 72 hrs by MTT assay. In kind it is functional, cell-based. The settings on record: HCC827, 72 h.
The subject of series [13] is HCC827. As to the kind of experiment: Induction of apoptosis in human HCC827 cells assessed as viable cells at 1.0 uM measured after 48 hrs by annexin V and PI staining based flow cytometry analysis (reference value: 96.74%). In kind it is functional. The conditions noted are these: read-out: Activity.
The subject of series [14] is HCC827. As to the kind of experiment: Induction of cell cycle arrest in human HCC827 cells assessed as accumulation of cells at G2 phase at 0.4 uM incubated for 24 hrs by PI staining based flow cytometry analysis (reference value: 7.15%). In kind it is functional.
Series [15] has as its system A-375. As to the kind of experiment: Antiproliferative activity against human A-375 cells assessed as inhibition of cell growth measured after 72 hrs by MTT assay. In kind it is functional, cell-based. The conditions noted are these: A-375, 72 h.
A further series relates to HCT-116. As to the kind of experiment: Antiproliferative activity against human HCT-116 cells assessed as inhibition of cell growth measured after 72 hrs by MTT assay. The class given is functional, cell-based. The settings on record: HCT-116, 72 h.
For a further series, the system named is NCI-H1975. As to the kind of experiment: Antiproliferative activity against human NCI-H1975 cells assessed as inhibition of cell growth measured after 72 hrs by MTT assay. The conditions noted are these: NCI-H1975, 72 h. In kind it is functional, cell-based.
Series [16] in a line: Drug accumulation in mitochondria of human HCC827 cells at 10 uM incubated for 10 mins in presence of CCCP by RP-HPLC-UV analysis. In kind it is ADME. The conditions noted are these: hcc827, 10 min.
Series [17] is described as follows: Antiproliferative activity against human BEAS-2B cells assessed as inhibition of cell growth measured after 72 hrs by MTT assay. In kind it is toxicity, cell-based.
The next series concerns MCF7. As to the kind of experiment: Antiproliferative activity against human MCF7 cells assessed as inhibition of cell growth measured after 72 hrs by MTT assay. In kind it is functional, cell-based. The settings on record: MCF7, 72 h.
Series [18] deals with HCC827. As to the kind of experiment: Induction of mitochondrial dysfunction in human HCC827 cells assessed as cytochrome C release in cytoplasm at 1 uM measured after 72 hrs by laser scanning confocal fluorescence microscopic analysis. The class given is functional, cell-based.
A further series relates to NCI-H460. As to the kind of experiment: Antiproliferative activity against human NCI-H460 cells assessed as inhibition of cell growth measured after 72 hrs by MTT assay. The settings on record: NCI-H460, 72 h. The class given is functional, cell-based.
The nature of series [19]: Drug accumulation in mitochondria of human HCC827 cells at 10 uM incubated for 5 mins. In kind it is ADME. The conditions noted are these: hcc827, 5 min.
The next series concerns NCI-H1299. As to the kind of experiment: Antiproliferative activity against human NCI-H1299 cells assessed as inhibition of cell growth measured after 72 hrs by MTT assay. The conditions noted are these: NCI-H1299, 72 h. The class given is functional, cell-based.
In series [20] the test system is HCC827. As to the kind of experiment: Induction of ROS generation in human HCC827 cells assessed as increase in NAD+/NADH ratio at 1 uM incubated for 4 hrs by absorbance based analysis. The class given is functional, cell-based.
Series [21] relates to Osimertinib-resistant NCI-H1975 cell. As to the kind of experiment: Antiproliferative activity against human Osimertinib-resistant NCI-H1975 cell assessed as inhibition of cell growth measured after 72 hrs by MTT assay. In kind it is functional, cell-based.
A further series concerns A549. As to the kind of experiment: Antiproliferative activity against human A549 cells assessed as inhibition of cell growth measured after 72 hrs by MTT assay. In kind it is functional, cell-based. The settings on record: A549, 72 h.
The subject of series [22] is HCC827. As to the kind of experiment: Induction of cell cycle arrest in human HCC827 cells assessed as accumulation of cells at G1 phase at 0.4 uM incubated for 24 hrs by PI staining based flow cytometry analysis (reference value: 66.44%). The class given is functional.
In another series the test system is MDA-MB-231. As to the kind of experiment: Antiproliferative activity against human MDA-MB-231 cells assessed as inhibition of cell growth measured after 72 hrs by MTT assay. The conditions noted are these: MDA-MB-231, 72 h. In kind it is functional, cell-based.
A short description of series [23]: Drug localization in mitochondria of human HCC827 cells assessed as increase in green fluorescence by measuring pearson correlation coefficient at 5 uM incubated for 10 mins by mito-tracker green dye based confocal scanning microscopy analysis. The class given is ADME. The conditions noted are these: hcc827, 10 min.
Series [24] can be described thus: Drug localization in mitochondria of human HCC827 cells assessed as increase in green fluorescence by measuring pearson correlation coefficient at 10 uM incubated for 10 mins by mito-tracker green dye based confocal scanning microscopy analysis. In kind it is ADME. The settings on record: hcc827, 10 min.
Series [25] in a line: Drug metabolism in human HCC827 cells mitochondria assessed as 2-(2-(4-hydroxystyryl)-4H-chromen-4-ylidene)malononitrile hydrolysis at 10 uM incubated for 5 mins by fluorescence emission spectroscopy analysis. The class given is ADME. The conditions noted are these: hcc827, 5 min.
Series [26] is described as follows: Drug uptake in human HCC827 cells mitochondria assessed as increase in fluorescence intensity at 10 uM by fluorescence emission spectroscopy analysis. The class given is ADME. The settings on record: hcc827, 10 µM.
Series [27] relates to HCC827. As to the kind of experiment: Antitumor activity against human HCC827 cells xenografted in female nude mouse model assessed as suppression of tumor growth at 100 mg/kg, ip measured every two days for 14 days. The class given is functional, organism-based. The conditions noted are these: time 14.0 day. Background: A xenograft is tissue or cells of one species grown in another, often human tumour cells in immunodeficient mice.

Activity calls are given as the source filed them. The rule behind the calls is not given here.

For `OCCCCCCCCCC[P+](c1ccccc1)(c1ccccc1)c1ccccc1.[Br-]`, the Activity came to 2.5% in the series with HCC827 [1]; 4.02% in the series on HCC827 [3]; 19.19% in the series on HCC827 [5]; 0.7% in the series on HCC827 [9]; 6% with HCC827 [14]; 74.82% with HCC827 [22]. The IC50 came out at 410 nM in the series with A-375 [2]; 540 nM in the series on SK-LU-1; 340 nM in [8]; 710 nM in the series on NCI-H1650; 230 nM in the series with HCC827 [12]; 410 nM in the series with A-375 [15]. In addition, the IC50 in the series on HCT-116 is 940 nM; in the series with NCI-H1975, 320 nM; in the series with MCF7, 310 nM; in the series with NCI-H460, 950 nM; in the series with NCI-H1299, greater than 5000 nM; in [21], 570 nM. The results for the IC50 in the series on A549 and with MDA-MB-231 were 1070 nM and 550 nM, respectively. For the same molecule, the IC50 at 72 h in [4] was determined as 3120 nM; in [7], 2380 nM; in series [11] it was 2790 nM; in [17] it was 1140 nM. For the same molecule, the inhibition result with HCC827 [6] was “Weak_effect”. Also, the result in the series with HCC827 [10] and in the series on HCC827 [20] was Active. In addition, the outcome in the series on Mitochondrial membrane and with HCC827 [18] was inactive. The viability at 1 µM in the series on HCC827 [13] was 94.1%. The Drug uptake result in series [16] is on record as “Not_active”; in series [19] it was ~ 90%.
`N#CC(C#N)=C1C=C(/C=C/c2ccc(O)cc2)Oc2ccccc21`: the Drug uptake in series [23] is 0.21.
Take `OCCCCCCCCCC[P+](c1ccc(C(F)(F)F)cc1)(c1ccc(C(F)(F)F)cc1)c1ccc(C(F)(F)F)cc1.[Br-]`: the Activity in the series with HCC827 [1] was 1.3%; in the series on HCC827 [3] it was 2.72%; with HCC827 [5], 26.29%; in the series on HCC827 [9], 2.87%; in the series on HCC827 [14], 4.38%; in the series on HCC827 [22] it was 69.33%. In addition, the IC50 at 72 h is greater than 40000 nM in series [4], greater than 40000 nM in series [7], 13800 nM in series [11] and 6900 nM in series [17]. Further, the IC50 in the series with SK-LU-1 was greater than 5000 nM; in series [8], greater than 5000 nM; in the series on NCI-H1650, 1970 nM; with HCC827 [12] it was greater than 5000 nM; in the series on A-375 [15], 5400 nM; with HCT-116, 7730 nM. The IC50 in the series with NCI-H1975 was greater than 5000 nM; with MCF7, 6450 nM; with NCI-H460 it was 3090 nM; in the series with NCI-H1299, greater than 10000 nM; in [21], 5320 nM; with A549, 6120 nM. Besides, the IC50 in the series with MDA-MB-231 was found to be 6290 nM. In addition, the inhibition result with HCC827 [6] was “Weak_effect”. Also, the result in the series with HCC827 [10] and in the series on HCC827 [20] was Active. Moreover, the result with Mitochondrial membrane and in the series on HCC827 [18] was inactive. Further, in the series on HCC827 [13], the viability at 1 µM was 92.1%. Besides, the Drug uptake entry in series [16] was “Not_active”; in series [19], 52%.
Regarding `O=C(CCCCC(CCSCc1ccccc1)SCc1ccccc1)OCCCCC[P+](c1ccccc1)(c1ccccc1)c1ccccc1` (stereo not given), the IC50 in the series on A-375 [2] was 4150 nM.
As for `O=C(O)CCCCC(CCSCc1ccccc1)SCc1ccccc1` (stereo not given) [CPI 613], in the series with A-375 [2], the IC50 is greater than 100000 nM.
As to `N#CC(C#N)=C1C=C(/C=C/c2ccc(OC(=O)OCCCCCCCCCC[P+](c3ccccc3)(c3ccccc3)c3ccccc3)cc2)Oc2ccccc21.[Br-]`, the Drug uptake in series [24] is on record as 0.9; in series [26], “Active”. Also, in series [25], the Drug metabolism entry is on record as “metabolite_detected”.
Consider `COc1cc2ncnc(Nc3ccc(F)c(Cl)c3)c2cc1OCCCN1CCOCC1`, for which the outcome in the series with HCC827 [27] was Active.

As usually defined, the IC50 is the concentration at which inhibition is half-maximal.
